Experimental data: patent US5245050A, “Derivatives of physiologically active substance ML-236B and process for production thereof” (Tobishi Yakuhin Kogyo Kabushiki Kaisha, priority 1988, dated 1993)

Molecular target: T1, HMG-CoA reductase (Rattus norvegicus, UniProt P51639)
T1 construct: 0.6 mg/ml of rat liver microsome fraction; from tissue; host or cells: rat liver (microsome fraction)
T1 sequence (P51639 1-887): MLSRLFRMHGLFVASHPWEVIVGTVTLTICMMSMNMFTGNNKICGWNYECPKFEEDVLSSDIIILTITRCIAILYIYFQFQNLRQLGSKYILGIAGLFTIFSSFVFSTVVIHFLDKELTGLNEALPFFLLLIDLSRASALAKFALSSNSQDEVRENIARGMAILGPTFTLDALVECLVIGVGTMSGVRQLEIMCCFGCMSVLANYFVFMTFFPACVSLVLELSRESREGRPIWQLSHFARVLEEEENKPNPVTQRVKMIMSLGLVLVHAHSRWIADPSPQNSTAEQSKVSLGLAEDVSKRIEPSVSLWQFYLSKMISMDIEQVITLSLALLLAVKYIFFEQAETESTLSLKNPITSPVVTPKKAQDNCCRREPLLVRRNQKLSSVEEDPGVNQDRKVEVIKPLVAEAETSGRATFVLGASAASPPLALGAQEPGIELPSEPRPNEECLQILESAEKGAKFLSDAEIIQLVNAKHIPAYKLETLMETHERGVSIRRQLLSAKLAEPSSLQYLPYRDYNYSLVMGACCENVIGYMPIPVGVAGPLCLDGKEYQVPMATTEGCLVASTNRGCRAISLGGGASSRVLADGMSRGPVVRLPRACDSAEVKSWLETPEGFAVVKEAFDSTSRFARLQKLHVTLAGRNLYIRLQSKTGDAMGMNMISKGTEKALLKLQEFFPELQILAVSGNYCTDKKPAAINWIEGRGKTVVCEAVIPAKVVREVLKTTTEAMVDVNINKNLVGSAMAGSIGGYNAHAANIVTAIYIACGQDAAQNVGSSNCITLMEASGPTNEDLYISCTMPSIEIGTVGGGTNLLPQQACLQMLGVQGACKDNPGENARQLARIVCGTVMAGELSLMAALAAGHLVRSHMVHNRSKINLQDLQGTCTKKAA
Assay: HMG-CoA reductase inhibitory activity ([14C]HMG-CoA to [14C]mevalonic acid, rat liver microsome fraction)
Assay type: biochemical
Settings: for remaining activity at 0.1 µg/mL: 0.1 μg/ml; for IC50: rat liver microsome fraction, 37° C., 30 minutes, read-out: I50 (amount of sample necessary to inhibit the HMG-CoA reductase activity to 50%) (converted); for remaining activity at 10 µg/mL: 10 μg/ml
Protocol: The HMG-CoA reductase activity can be determined by using [^14 C] HMG-CoA as a substrate and measuring the resulting [^14 C] mevalonic acid (Kuroda and Endo, Biochem Biophys Acta, 486, 70-81), as described in detail in the following.
A reaction mixture contains 100 mM of potassium phosphate buffer (pH 7.4), 10 mM of EDTA, 10 mM of dithiothreitol, 10 mM of NADPH, 0.11 mM of DL-[3-^14 C] HMG-CoA (4.5 mCi/mmol), and 0.6 mg/ml of rat liver microsome fraction. The final volume of reaction mixture is 50 μl including 1 μl of a methanol solution of a test sample. A reaction is started by adding the substrate HMG-CoA, continued at 37° C. for 30 minutes, and terminated by adding 10 μl of 2N hydrochloric acid solution To this reaction mixture is added 20 μl of 100 mM [5-^3 H] mevaronic acid (22.7 μCi/mmol), and the reaction is carried out at 37° C. for a further 15 minutes. Using 40 μl of this reaction mixture as a carrier, 5 μl of 200 mM mevaronic acid (lactone type) is spotted on a silica gel plate, and after development by benzene/acetone (1:1) mixture, a spot of mevaronic acid is peeled off and suspended in a liquid scintillator to measure the radio activity thereof. The inhibitory activity is expressed by an amount of a sample necessary to inhibit the HMG-CoA reductase activity to 50% (I50 value).

[1] = read-out: Enzyme activity (% relating to control)

Row | Structure (SMILES) | remaining activity at 0.1 µg/mL [1] [%] | remaining activity at 1 µg/mL (1 μg/ml, read-out: Enzyme activity (% relating to control)) [%] | IC50 [nM] | remaining activity at 10 µg/mL [1] [%]
1 | CCC(C)C(=O)OC1CCC2C(F)(F)C23C=CC(C)C(CCC2CC(O)CC(=O)O2)C13 (stereo not drawn) [(1)] | 74 | 27 | 681 | –
2 | CCC(C)C(=O)OC1CCC2C(Cl)C23C=CC(C)C(CCC2CC(O)CC(=O)O2)C13 (stereo not drawn) [Compound (6)] | 71 | – | 683 | 4.7
3 | CCC(C)C(=O)OC1CCC2C(Cl)(Cl)C23C=CC(C)C(CCC(O)CC(O)CC(N)=O)C13 (stereo not drawn) [(7)] | 98 | – | > 2040 | 30
4 | CCC(C)C(=O)OC1CCC2CC23C=CC(C)C(CCC2CC(O)CC(=O)O2)C13 (stereo not drawn) [(4)] | 63 | – | 544 | 7.6
